# Test results as given in patent US10758522B2, “Small molecule analogs of the nemo binding peptide” (THE SCRIPPS RESEARCH INSTITUTE, priority 2015, dated 2020).
# Columns and labels:
# [1] = test system: K14-Cre; Ercc1−/flox mice; assay: Topical treatment of skin aging in K14-Cre; Ercc1−/flox mice; type: in vivo, mouse; conditions: daily
# Description: To test the ability of NBDA-1 to function in vivo, the drug was tested in several models of aging. In FIG. 12, the ability of topical treatment of NBDA-1 to reduce signs of skin aging is shown. Areas on the back of normal mice or mice with enhanced skin aging (K14-Cre; Ercc1^−/flox) were shaved and then treated daily with drugs or control creams.
# [2] = test system: mdx mice; assay: Chronic treatment of mdx mice (Duchenne muscular dystrophy model); type: in vivo, mouse; conditions: ip 3 times/week for 4 weeks
# Excerpt: Mdx mice develop normally at birth, and then undergo a massive myonecrosis starting at three weeks. Treatment of mdx mice with IKK/NF-kB inhibitors effectively reduces inflammation, block necrosis and increase muscle regeneration. Mdx mice were chronically treated with vehicle, SR12343, SR12460 or 8K-NBD starting from day 21, 3 times/week for 4 weeks. […] To determine if SR12343 and SR12460 improve muscle pathology, tibialis anterior (TA) muscle was stained with hematoxylin and eosin (H&E) to assess inflammatory infiltration, necrosis, central nucleation and fibrosis. […] Fiber size in centrally nucleated and non-centrally nucleated myofibers was also smaller in mice treated with SR12343 and 8K-NBD, indicating active reconstruction of myofiber during the regenerative phase.
# To determine muscle strength post-treatment, grip strength test on forelimbs was performed 2 weeks and 4 weeks post-treatment.
# HEK293 cells were grown in Dulbecco's Modification of Eagles Medium (with 4.5 g/L glucose and L-glutamine), supplemented with 10% fetal bovine serum, penicillin and streptomycin. Raw264.7 cells were cultured in RPMI-1640 media containing 10% heat-inactivated fetal bovine serum, penicillin and streptomycin. C57BL/10ScSn-Dmd^mdx/J and female C57BL/6 mice were purchased from the Jackson Laboratory. Mice were housed in the animal facilities of Scripps Fla. under constant temperature and humidity. Animal protocols used in this study were approved by Scripps Fla. Institutional Animal Care and Use Committees. Three week-old sex-matched mdx mice were dosed with SR12343 (30 mg/kg), […] (30 mg/kg), 8K-NBD peptide (10 mg/kg) or vehicle by intraperitoneal (i.p.) injection 3 times per week for 4 weeks. Mice were sacrificed at 7 weeks of age by carbon dioxide inhalation and tibialis anterior was collected for histological analysis.
# Seven week-old treated or untreated mdx mice were measured for forelimb grip strength using a digital grip strength meter paired with a metal grid (Bioseb). Mice were allowed to grip the metal grid tightly and readings were obtained by gently pulling the tail backward until release. Five sequential measurements were performed and the average force was calculated.
# Tissues fixed in 10% neutral buffered formalin (NBF) overnight were imbedded in paraffin. Tissue was sectioned at […] using a microtome. H&E staining was conducted following a standard protocol (REF).
# [3] = test system: Ercc1−/Δ mice; assay: Systemic treatment of Ercc1−/Δ mice, intervertebral disc proteoglycan; type: in vivo, mouse; conditions: IP 3× a week, 10 mg/kg for 8 weeks
# Description: The ability of the compounds to work systemically was also tested. In these experiments, Ercc1^−/Δ mice with accelerated aging (lifespan of 5 months) were treated systemically, 3× a week, by IP injection at a dose of 10 mg/kg for 8 weeks. Since we previously had shown that the NF-κB is a key factor in driving intervertebral disc degenerated, we assessed the effects of treatment on proteoglycan synthesis and content in the discus following treatment.
# [4] = molecular target: T1, IKK complex (IKKß, IKKα and NEMO) (Homo sapiens, UniProt Q9Y6K9); assay: Co-immunoprecipitation of NEMO with IKKß in 293 cells; type: cell-based; conditions: Zinc-5 at 4 hours, Zinc-13 at 1 hour, NBD peptide at 4 hours
# T1 construct: analyzed by Western blot for the level of co-precipitated NEMO; endogenous in cells; host or cells: 293 (HEK293) cells
# Excerpt: FIG. 8 is a bar graph showing the inhibition of TNFα by NBDA-1 (Zinc-13). […] In addition, we have examined the ability of the compounds to disrupt the IKK complex, comprised of IKKß, IKKα and NEMO.
# A non-functional, related compound Zinc-7 had no effect.
# [5] = test system: NF-κB target genes; assay: qRT-PCR of NF-κB target genes in LPS-stimulated Raw 264.7 cells; type: cell-based, mouse; conditions: Raw 264.7, LPS
# Description: Effect of the NBD mimetics on expression of NF-kB regulated genes in the Raw mouse macrophage cell line. Treatment of the Raw cells with the indicated drugs prior to addition of LPS reduced NF-kB-mediated gene expression as measured by RT-PCR.
# To determine whether the inhibitory effect of the mimetics is TNF-α-dependent, LPS-mediated NF-κB activation via TLR4 was examined to determine a broader inhibitory effect of the novel NBD mimetics. NF-κB was stimulated in Raw 264.7 by 1 ug/ml of LPS for 2 hr and genes transcriptionally regulated by NF-κB were determined by qRT-PCR analysis. Both an IKK active site inhibitor IKKi VII (2 μM) and the 8K-NBD peptide (400 μM) were included as positive controls and the expression of COX2, IL-6, IL-1β, TNF-α, IκBα and iNOS were assessed.
# Raw 264.7 cells were treated with a 50 μM solution of the SR compound for 30 minutes, and then the mRNA was harvested 2 hours after addition of 1 μg/mL LPS.
# Snap frozen tissues were preserved in RNAlater RNA stabilization solution (ThermoFisher) before processed. Total RNA was extracted from cells or tissues using TRIZOL reagent (Life Technologies) and 1500 ng of messenger RNA (mRNA) was subjected to synthesize complementary DNA (cDNA) using SuperScript VILO cDNA synthesis kit. qRT-PCR was performed in a StepOnePlus Real-Time PCR system using Platinum SYBR Green qPCR SuperMix-UDG (ThermoFisher). Target gene expression was calculated using the comparative CT method (ΔΔCT) and normalized to an internal control gene Actb (β-actin). Primers used are as follows: Ptgs2 (COX-2) forward: […]; Ptgs2 (COX-2) reverse: […]; Nfkbia (IκBα) forward: […]; Nfkbia (IκBα) reverse: […]; Il1b (IL-1β) forward: […]; Il1b (IL-1β) reverse: […]; Nos2 (iNOS) forward: […]; Nos2 (iNOS) reverse: […]; Tnf (TNF) forward: […]; Tnf (TNF) reverse: […]; Il6 (IL-6) forward: […]; Il6 (IL-6) reverse: […]. Actb (β-actin) forward: […]; Actb (β-actin) reverse: […];
# [6] = test system: IKKβ-NEMO interaction; assay: Immunoprecipitation of NEMO and IKKβ immunoblot in Raw 264.7 macrophages and HEK293 cells; type: cell-based; conditions: Raw 264.7 macrophages / HEK293; mimetics 100 μM, 8K-NBD 400 μM
# Description: The NBD mimetics reduce the interaction between IKKg (NEMO) and IKKß. The indicated concentrations of the drugs were added to HEK 293 or Raw 264.7 cells and cell extracts prepared 30 minutes later. Following immunoprecipitation (IP) of NEMO, the Western was probed for IKKß.
# After treatment with the mimetics or NBD peptide, NEMO was immunoprecipitated by an anti-NEMO antibody and IKKβ was immunoblotted to determine the binding of IKKβ to NEMO.
# HEK293 or Raw264.7 cells were seeded at 1×10^6 cells/well in 6-well plates and treated with vehicle, small molecule or NBD peptide for indicated time. Cells were lysed in NP-40 lysis buffer supplemented with 1× protease inhibitor cocktails (sigma). Protein was immunoprecipitated by incubating 150 μg of lysate with 1 μg of anti-NEMO antibody (Santa Cruz) on a rotating shaker at 4° C. for 4 hrs, followed by incubation with 20 ul of Protein A agarose beads (ThermoFisher) for 1 hr. Beads were washed in NP40 buffer 3 times and PBS once. Protein was then denatured in SDS-sample buffer and resolved by MINI-PROTEAN TGX 4-15% SDS-PAGE. Anti-IKKβ (1:1000 CST) was used to assess binding of IKKβ to NEMO and anti-NEMO (1:1000 CST) or IgG were used to as a loading control.
# T1 sequence (Q9Y6K9 whole entry, one chain of several): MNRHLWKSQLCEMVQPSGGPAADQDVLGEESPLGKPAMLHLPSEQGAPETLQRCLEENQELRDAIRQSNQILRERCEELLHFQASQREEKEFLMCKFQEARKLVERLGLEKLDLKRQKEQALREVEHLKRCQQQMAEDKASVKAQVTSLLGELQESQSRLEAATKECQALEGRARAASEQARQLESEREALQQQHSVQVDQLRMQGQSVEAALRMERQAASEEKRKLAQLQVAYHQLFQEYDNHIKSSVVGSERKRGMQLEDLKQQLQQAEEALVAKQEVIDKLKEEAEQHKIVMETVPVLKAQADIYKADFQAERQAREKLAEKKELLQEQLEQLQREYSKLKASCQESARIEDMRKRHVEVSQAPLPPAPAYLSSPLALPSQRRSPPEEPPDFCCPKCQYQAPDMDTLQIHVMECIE
substance,measurement,setting,value
"8K-NBD peptide: 8K-NBD (KKKKKKKKGGTALDWSWLQTE) peptide, NEMO binding domain peptide with protein transduction domain, control [reference compound]",epidermal thickness / skin architecture,[1],improved skin architecture and increased epidermal thickness
same,expression of eMyHC and Pax 7 in TA muscle (qRT-PCR),[2],"increased eMyHC expression, but to a lower extent compared to SR12343"
same,fiber size in centrally nucleated and non-centrally nucleated myofibers,[2],smaller
same,tibialis anterior muscle pathology (H&E),"[2]; SR compounds 30 mg/kg, 8K-NBD 10 mg/kg",reduced inflammatory cell infiltration and necrosis and also promoted muscle regeneration
same,proteoglycan synthesis and content in the intervertebral disc,[3],"restored proteoglycan synthesis and content back to levels seen in normal, young mice"
same,level of NEMO co-immunoprecipitated with IKKß,[4],reduced the level of co-immunoprecipitated NEMO
same,iNOS expression,[5],significantly inhibited
same,"disruption of IKKβ-NEMO interaction (NEMO IP, IKKβ blot)",[6],able to disrupt the protein-protein interaction in macrophages at 400 μM
